Test results: patent US8703811B2, “Small molecule inhibitors of Plasmodium falciparum dihydroorotate dehydrogenase” (Genzyme Corporation, priority 2008, dated 2014)
Converted amounts (≈) assume the structure as drawn. Like-named read-outs stand apart in the source and are kept apart here.

What was measured:
[1] = Log D measurement; assay type: physicochemical; settings: octanol/water; read-out: LogD
Excerpt: Many standard techniques are known in the art to establish the distribution coefficient of a compound between two particular solvents. The following description is one such technique that could be used to determine the distribution coefficient: The shake-flask method, which consists of dissolving some of the compound in a volume of octanol and water, then physically shaking the mixture and allowing the two solvents to fully separate. The concentration of the compound in each solvent is then measured. The most common method of measuring the distribution of the solute is by HPLC or UV/Vis spectroscopic techniques.

[2] = system: P. falciparum Dd2; assay: Inhibition of in vitro P. falciparum culture, [3H]-hypoxanthine uptake, Dd2; assay type: cell-based; settings: Plasmodium falciparum; for EC50: DD2, Table 2b, read-out: Dd2 EC50; for IC50: DD2, Table 3, [3H]-hypoxanthine uptake, read-out: Dd2 IC50
Summary of the method: (§1)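 Parasite growth inhibition measured as relative reduction of [3H]-hypoxanthine uptake in in vitro cultures. Values from non-linear regression fit, using relative growth velocity in place of product-formation rate.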

[3] = Solubility measurement; assay type: physicochemical; settings: aqueous buffer, thermodynamic from solid; read-out: Solubility
Excerpt: Many standard techniques are known in the art to establish the solubility of a compound in a particular solvent. The following description is one such technique that could be used to determine the solubility: Equilibrium solubility measurements start with the solid form of the compound (crystalline form preferred). The powder is physically mixed with an aqueous buffer (defined pH) until equilibrium is reached. Either centrifugation or filtration can be used to separate the solution from the remaining solid. The amount dissolved in the solution can be determined by any one of many known methods including HPLC or UV/Vis spectroscopic techniques.

[4] = target: Cytochrome P450 2C19 (Homo sapiens (Human), UniProt P33261); assay: Cytochrome P450 inhibition, 2C19; assay type: in vitro ADME
Excerpt: (§2) Rapid screening for cytochrome P450 inhibitors is part of the current paradigm for avoiding development of drugs likely to give clinical pharmacokinetic drug-drug interactions and associated toxicities. There are commercially available assays for such screenings. For example, BD Biosciences (http://www.bdbiosciences.com/index.shtml) provides a technical bulletin describing a detailed, step-by-step procedure for the performance of the high throughput cytochrome P450 inhibition testing method.

[5] = target: Cytochrome P450 1A2 (Homo sapiens (Human), UniProt P05177); assay type: in vitro ADME
Excerpt: as §2

[6] = Hepatic clearance, human; assay type: in vitro ADME
Excerpt: (§3) Clearance of drug by the liver will depend on the rate of delivery of drug to the liver (the hepatic blood flow) and on the efficiency of removal of drug which is presented to it (the extraction ratio). The hepatic clearance of compounds can be determined by standard methods known in the art. Such methods are described in, for example, Naritomi, Y; Terashita, S; Kagayama, A; Sugiyama, Y. “Utility of Hepatocytes in Predicting Drug Metabolism: Comparison of Hepatic Intrinsic Clearance in Rats and Humans in Vivo and in Vitro.” 2003, 31 (5): pages 580-588.

[7] = Hepatic clearance, rat; assay type: in vitro ADME
Excerpt: as §3

[8] = system: P. falciparum 3D7; assay: Inhibition of in vitro P. falciparum culture, [3H]-hypoxanthine uptake, 3D7; assay type: cell-based; settings: Plasmodium falciparum; for EC50: 3D7, Table 2b, read-out: 3D7 EC50; for IC50: 3D7, Table 3, [3H]-hypoxanthine uptake, read-out: 3D7 IC50
Summary of the method: as §1

[9] = target: Cytochrome P450 2C9 (Homo sapiens (Human), UniProt P11712); assay: Cytochrome P450 inhibition, 2C9; assay type: in vitro ADME
Excerpt: as §2

[10] = target: Cytochrome P450 3A4 (Homo sapiens (Human), UniProt P08684); assay: Cytochrome P450 inhibition, 3A4; assay type: in vitro ADME
Excerpt: as §2

[11] = target: Cytochrome P450 2D6 (Homo sapiens (Human), UniProt P10635); assay: Cytochrome P450 inhibition, 2D6; assay type: in vitro ADME
Excerpt: as §2

[12] = Permeability; assay type: in vitro ADME; settings: Caco-2
Experimental: Permeability assays using the Caco-2 colon carcinoma cell line are being used throughout the pharmaceutical industry to estimate the ability of potential drug compounds to cross the intestinal epithelium. Caco-2 cell permeability studies are performed using Caco-2 cell monolayers grown on microporous membranes in multiwell insert systems. With the inserts suspended in the wells of multiwell plates, test compounds can be added to either the upper (apical) or lower (basolateral) chamber to measure permeability in the absorptive (apical to basolateral) or secretive (basolateral to apical) directions. Samples are then taken from the opposite chamber at various time intervals to measure the amount of test compound that has crossed the cell monolayer. A representative method to generate permeability data similar to that in Table 3 can be found in Alsenz, J; Haenel, E. “Development of a 7-Day, 96-Well Caco-2 Permeability Assay with High-Throughput Direct UV Compound Analysis.” Pharmaceutical Research 2003 20(12): p 1961-1969.
Parallel artificial membrane permeability assay (PAMPA) utilizes a simple phospholipid-coated filter disc to measure membrane permeability. It was developed as an alternative to the low throughput. Caco-2 cell permeability assay used to correlate passive permeability with in vivo oral absorption. A representative publication disclosing this method is Kerns, E H; Di, L; Petusky, S; Farris, M; Ley, R; Jupp, P. “Combined application of parallel artificial membrane permeability assay and Caco-2 permeability assays in drug discovery.” J. Pharma Sci. 2004, 93 (6), pages 1440-53.
Cell culture methods (e.g. Caco-2, HT-29 and MDC) and physicochemical methods such as PAMPA and immobilized artificial membrane (IAM) columns are known in the art and can be used to obtain data such as that in Table 3. Hidalgo, I J; “Assessing the absorption of new pharmaceuticals.” Curr Top Med. Chem. 2001 November; 1(5): p 385-401.

[13] = target: hsDHODH (Homo sapiens (Human), UniProt Q02127); assay: DCIP assay, hsDHODH; assay type: biochemical; settings: Table 3; DCIP assay, 20 nM hsDHODH; read-out: hsDHODH IC50
Excerpt: Type 2 DHODH activity was monitored with either the direct assay measuring the formation of orotate or via a chromogen reduction assay using DCIP. Although the extinction coefficient and absorption wavelength are preferable for the chromogen reduction assay, the inorganic electron acceptor DCIP can be utilized by DHODH as the final electron acceptor in lieu of CoQn when the endogenous substrate is at a low concentration. As such, the direct assay was used to measure the binding affinity of pfDHODH to CoQD and L-DHO. The enzymatic reaction was performed by varying the L-DHO concentration (1-400 μM) or CoQD concentration (1-200 μM) while keeping the other substrate constant and in excess. The formation of orotate was measured continuously at 296 nm (ε296=4.3 mM^−1 cm^−1). Inhibition of DHODH by small molecules was evaluated using the chromogen based assay with a final substrate concentration of 200 μM L-DHO, 18 μM CoQD, and 100 μM DCIP, unless otherwise noted. The reduction of DCIP was monitored at 600 nm (ε600=18.8 mM^−1 cm^−1).
Substrate specificity and enzyme inhibition data was analyzed with GraphPad Prism Version 4 for Windows (GraphPad Software). Kinetic constants were calculated by non-linear regression fitting of the data to the Michaelis-Menten equation [36]. IC50 values were determined by non-linear regression fitting of the data to Equation 1: […]

[14] = target: pfDHODH (Plasmodium falciparum (isolate 3D7), UniProt Q08210); assay: DHODH chromogen reduction (DCIP) assay, pfDHODH; assay type: biochemical, P. falciparum; settings: read-out: pfDHODH IC50
[15] = Table 3, DCIP assay, 20 nM pfDHODH

pfDHODH, sequence (Q08210 159-565 limits assumed): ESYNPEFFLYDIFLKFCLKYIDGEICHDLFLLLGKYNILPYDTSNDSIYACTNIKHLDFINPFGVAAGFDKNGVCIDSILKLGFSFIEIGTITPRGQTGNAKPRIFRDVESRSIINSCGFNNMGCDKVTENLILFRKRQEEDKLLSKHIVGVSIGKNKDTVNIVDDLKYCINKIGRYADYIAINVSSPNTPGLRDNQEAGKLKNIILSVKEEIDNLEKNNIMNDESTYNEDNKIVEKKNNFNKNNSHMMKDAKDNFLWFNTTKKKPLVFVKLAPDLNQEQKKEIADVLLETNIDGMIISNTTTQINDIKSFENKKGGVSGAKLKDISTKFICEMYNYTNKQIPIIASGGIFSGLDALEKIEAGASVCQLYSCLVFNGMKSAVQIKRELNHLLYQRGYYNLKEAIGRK
Cytochrome P450 1A2, sequence (P05177 whole entry): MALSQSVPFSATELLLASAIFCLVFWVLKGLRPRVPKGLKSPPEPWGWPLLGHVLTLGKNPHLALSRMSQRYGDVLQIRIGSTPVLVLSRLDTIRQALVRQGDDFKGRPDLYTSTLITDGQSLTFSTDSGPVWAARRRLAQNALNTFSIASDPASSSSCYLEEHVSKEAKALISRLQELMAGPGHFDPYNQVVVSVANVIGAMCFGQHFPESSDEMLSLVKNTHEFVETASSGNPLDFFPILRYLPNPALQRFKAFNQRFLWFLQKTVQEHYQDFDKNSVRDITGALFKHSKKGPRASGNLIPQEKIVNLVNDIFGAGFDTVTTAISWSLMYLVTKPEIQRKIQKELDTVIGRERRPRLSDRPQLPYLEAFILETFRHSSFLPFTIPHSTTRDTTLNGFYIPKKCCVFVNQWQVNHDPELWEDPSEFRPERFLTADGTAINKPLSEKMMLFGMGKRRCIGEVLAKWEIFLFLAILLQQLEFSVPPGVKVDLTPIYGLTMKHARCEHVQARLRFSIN
Cytochrome P450 2C9, sequence (P11712 whole entry): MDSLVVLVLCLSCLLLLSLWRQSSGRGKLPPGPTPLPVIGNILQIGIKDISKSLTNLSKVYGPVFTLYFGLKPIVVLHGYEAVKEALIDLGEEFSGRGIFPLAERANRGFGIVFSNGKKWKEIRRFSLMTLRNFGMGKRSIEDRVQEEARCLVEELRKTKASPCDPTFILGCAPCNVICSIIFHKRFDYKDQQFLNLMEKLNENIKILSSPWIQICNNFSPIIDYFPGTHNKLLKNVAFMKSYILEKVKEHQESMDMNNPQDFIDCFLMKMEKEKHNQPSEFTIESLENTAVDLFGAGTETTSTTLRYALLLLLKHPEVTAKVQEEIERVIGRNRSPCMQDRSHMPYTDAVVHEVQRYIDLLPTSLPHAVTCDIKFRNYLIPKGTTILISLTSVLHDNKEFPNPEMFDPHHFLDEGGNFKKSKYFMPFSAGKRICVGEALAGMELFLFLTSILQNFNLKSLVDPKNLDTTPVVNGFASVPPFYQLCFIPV
Cytochrome P450 3A4, sequence (P08684 whole entry): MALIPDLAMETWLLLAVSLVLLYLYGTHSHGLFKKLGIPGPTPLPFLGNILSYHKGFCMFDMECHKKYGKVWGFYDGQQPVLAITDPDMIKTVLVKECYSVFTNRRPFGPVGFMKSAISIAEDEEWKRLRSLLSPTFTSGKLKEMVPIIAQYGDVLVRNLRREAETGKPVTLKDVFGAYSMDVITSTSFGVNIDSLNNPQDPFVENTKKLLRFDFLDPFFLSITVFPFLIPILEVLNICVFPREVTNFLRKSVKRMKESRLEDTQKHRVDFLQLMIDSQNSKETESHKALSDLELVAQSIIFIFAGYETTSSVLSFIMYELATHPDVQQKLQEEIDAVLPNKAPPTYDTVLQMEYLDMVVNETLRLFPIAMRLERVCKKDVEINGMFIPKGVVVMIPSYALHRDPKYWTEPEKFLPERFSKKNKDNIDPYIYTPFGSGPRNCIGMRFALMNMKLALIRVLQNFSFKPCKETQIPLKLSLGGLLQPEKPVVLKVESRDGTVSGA
Cytochrome P450 2D6, sequence (P10635 whole entry): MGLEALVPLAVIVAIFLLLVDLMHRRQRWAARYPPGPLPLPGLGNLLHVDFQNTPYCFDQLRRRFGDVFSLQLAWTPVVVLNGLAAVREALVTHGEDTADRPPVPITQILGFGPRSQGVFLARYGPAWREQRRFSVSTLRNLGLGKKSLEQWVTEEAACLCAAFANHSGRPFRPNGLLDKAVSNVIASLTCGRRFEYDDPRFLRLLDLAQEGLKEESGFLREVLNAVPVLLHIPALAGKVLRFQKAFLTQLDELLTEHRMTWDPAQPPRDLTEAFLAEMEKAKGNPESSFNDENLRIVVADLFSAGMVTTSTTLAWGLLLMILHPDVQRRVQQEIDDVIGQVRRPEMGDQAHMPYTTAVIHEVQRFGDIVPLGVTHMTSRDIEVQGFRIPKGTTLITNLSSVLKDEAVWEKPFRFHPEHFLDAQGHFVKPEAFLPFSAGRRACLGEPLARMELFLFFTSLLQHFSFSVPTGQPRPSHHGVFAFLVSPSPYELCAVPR
Cytochrome P450 2C19, sequence (P33261 whole entry): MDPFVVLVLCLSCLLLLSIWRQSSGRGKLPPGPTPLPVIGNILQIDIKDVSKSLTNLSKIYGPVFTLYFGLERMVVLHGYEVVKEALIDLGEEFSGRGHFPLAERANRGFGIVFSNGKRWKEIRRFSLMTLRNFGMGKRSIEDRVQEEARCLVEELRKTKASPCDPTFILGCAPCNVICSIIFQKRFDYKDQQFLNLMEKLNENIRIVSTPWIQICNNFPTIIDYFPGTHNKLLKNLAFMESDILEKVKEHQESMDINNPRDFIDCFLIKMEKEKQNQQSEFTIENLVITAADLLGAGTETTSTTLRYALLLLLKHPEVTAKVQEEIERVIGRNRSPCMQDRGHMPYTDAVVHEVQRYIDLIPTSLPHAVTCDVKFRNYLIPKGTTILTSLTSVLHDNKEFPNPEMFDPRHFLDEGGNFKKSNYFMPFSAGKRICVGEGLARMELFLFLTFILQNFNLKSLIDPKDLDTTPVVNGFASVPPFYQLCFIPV
hsDHODH, sequence (Q02127 29-395 limits assumed): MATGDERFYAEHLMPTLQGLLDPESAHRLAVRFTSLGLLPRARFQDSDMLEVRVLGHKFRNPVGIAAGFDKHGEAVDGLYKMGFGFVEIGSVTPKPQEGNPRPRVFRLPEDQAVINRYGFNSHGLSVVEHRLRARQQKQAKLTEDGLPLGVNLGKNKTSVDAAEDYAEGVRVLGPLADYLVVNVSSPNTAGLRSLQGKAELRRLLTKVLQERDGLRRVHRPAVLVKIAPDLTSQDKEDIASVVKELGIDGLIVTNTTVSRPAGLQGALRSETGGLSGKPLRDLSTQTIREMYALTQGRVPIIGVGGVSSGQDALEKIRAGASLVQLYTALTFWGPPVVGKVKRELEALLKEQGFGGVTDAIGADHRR

`CCCNC(=O)c1ccc(N2CCCCC2)s1` [Compound 8, 5-(piperidin-1-yl)-N-propylthiophene-2-carboxamide] showed a logD [1] of 3.2, an EC50 [2] of over 10 µM and an IC50 [2] of over 10 µM. For the same molecule, the solubility [3] was over 30 µg/mL, the “Cytochrome P450 Inhibition, 2C19” value [4] was over 5.0 in 2C19 μM and the “Cytochrome P450 Inhibition, 1A2” value [5] was over 5.0 in 1A2 μM. It also gave a microsomal CLint [6] of over 72 µL/min/mg, a microsomal CLint [7] of over 119 µL/min/mg and an EC50 [8] of over 10 µM. For the same molecule, the IC50 [8] was over 10 µM, the “Cytochrome P450 Inhibition, 2C9” value [9] was over 5.0 in 2C9 μM and the “Cytochrome P450 Inhibition, 3A4” value [10] was over 5.0 in 3A4 μM. For the same molecule, the “Cytochrome P450 Inhibition, 2D6” value [11] was over 5.0 in 2D6 μM, the Papp [12] was 43 ×10⁻⁶ cm/s and the IC50 [13] was over 30 µM. The IC50 ([14]; Table 2b) was 230 µM and the IC50 [14, 15] was over 30 µM.
In the case of `CCCNC(=O)c1ccc(N2CCN(C)CC2)s1` [Compound 10, 5-(4-methylpiperazin-1-yl)-N-propylthiophene-2-carboxamide], the logD [1] is reported as 1.5, the EC50 [2] is reported as over 10 µM and the IC50 [2] is reported as over 10 µM. For the same molecule, the solubility [3] was 24 µg/mL (≈ 89.8 µM), the “Cytochrome P450 Inhibition, 2C19” value [4] was over 5.0 in 2C19 μM and the “Cytochrome P450 Inhibition, 1A2” value [5] was over 5.0 in 1A2 μM. The microsomal CLint [6] was 8 µL/min/mg, the microsomal CLint [7] was 16 µL/min/mg and the EC50 [8] was over 10 µM. For the same molecule, the IC50 [8] was over 10 µM, the “Cytochrome P450 Inhibition, 2C9” value [9] was over 5.0 in 2C9 μM and the “Cytochrome P450 Inhibition, 3A4” value [10] was over 5.0 in 3A4 μM. For the same molecule, the “Cytochrome P450 Inhibition, 2D6” value [11] was over 5.0 in 2D6 μM, the Papp [12] was 11 ×10⁻⁶ cm/s and the IC50 ([14]; Table 2b) was over 250 µM. It also gave an IC50 [14, 15] of over 30 µM.
Work on `CCCNC(=O)c1ccc(-n2cccn2)s1` [Compound 9, N-propyl-5-(1H-pyrazol-1-yl)thiophene-2-carboxamide] yielded a logD [1] of 2.2, an EC50 [2] of over 10 µM and an IC50 [2] of over 10 µM. The solubility [3] was over 30 µg/mL, the “Cytochrome P450 Inhibition, 2C19” value [4] was over 5.0 in 2C19 μM and the “Cytochrome P450 Inhibition, 1A2” value [5] was over 5.0 in 1A2 μM. The microsomal CLint [6] was 59 µL/min/mg, the microsomal CLint [7] was 104 µL/min/mg and the EC50 [8] was over 10 µM. For the same molecule, the IC50 [8] was over 10 µM, the “Cytochrome P450 Inhibition, 2C9” value [9] was over 5.0 in 2C9 μM and the “Cytochrome P450 Inhibition, 3A4” value [10] was over 5.0 in 3A4 μM. For the same molecule, the “Cytochrome P450 Inhibition, 2D6” value [11] was over 5.0 in 2D6 μM, the Papp [12] was 22 ×10⁻⁶ cm/s and the IC50 [13] was over 30 µM. It also gave an IC50 ([14]; Table 2b) of over 250 µM and an IC50 [14, 15] of over 30 µM.
